Measured values taken from US11286268B1, “EIF4E-inhibiting compounds and methods” (EFFECTOR THERAPEUTICS, INC., priority 2019, dated 2022).
Where two headings read alike, the source gives them in different places.

Target: recombinant eIF4E (Homo sapiens (Human), UniProt P06730)
Test: Fluorescence polarization competition assay for eIF4E binding potency
Outline: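 Competition of test compound against 20 nM EDA-m^7GDP-ATTO-550 for 75 nM recombinant eIF4E, pre-incubated 5 min, in 20 mM Tris pH 7.5, 100 mM NaCl, 1 mM DTT, 0.02% Tween-20, 1% DMSO. Equilibrated 30 min at room temperature, dark; fluorescence polarization read. IC50 from 8-point, 3-fold dilution series.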

[1] = inhibition of eIF4E/EDA-m7GDP-ATTO-550 binding, calculated IC50 values, Table 4B, read-out: IC50
[2] = fluorescence polarization competition, 75 nM recombinant eIF4E, 20 nM EDA-m7GDP-ATTO-550, IC50 class, read-out: elF4E FP
[3] = inhibition of eIF4E/EDA-m7GDP-ATTO-550 binding by 50%, Table 4B calculated values, read-out: IC50

Chain of recombinant eIF4E (P06730 whole entry): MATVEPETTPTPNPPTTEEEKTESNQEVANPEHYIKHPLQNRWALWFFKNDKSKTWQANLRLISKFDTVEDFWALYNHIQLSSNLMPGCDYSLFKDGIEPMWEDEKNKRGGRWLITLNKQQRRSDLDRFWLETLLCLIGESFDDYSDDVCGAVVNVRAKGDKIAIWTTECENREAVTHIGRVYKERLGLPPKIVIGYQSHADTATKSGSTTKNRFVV

Structure (SMILES)	IC50 [1]	IC50 [2]	IC50 [3]
Cc1nc2cnc(N3CCC4(CC3)CN(CC(F)F)C4)c(C#N)c2c(=O)n1CC#Cc1ccc(Cl)cc1-c1ccnc2c(C(=O)NS(C)(=O)=O)csc12 [compound 1648]	13.3 nM		
Cc1nc2cnc(N3CC[N+](CCO)(C(F)F)CC3)c(C#N)c2c(=O)n1CC#Cc1ccc(Cl)cc1-c1ccnc2c(C(=O)O)csc12 [compound 1644]	14.5 nM		
Cc1cc(-c2cc(Cl)ccc2OCCn2c(C)nc3cc(C(F)(F)F)c(N4CCC(F)(F)CC4)nc3c2=O)c2scc(C(=O)O)c2n1 [compound 802]		< 50 nM	35.9 nM
Cc1cc(-c2cc(Cl)ccc2OCCn2c(C)nc3cc(Cl)c(N4C[C@@H](C)N(C)[C@@H](C)C4)c(C#N)c3c2=O)c2sc(C)c(C(=O)O)c2n1 [1090a]			38.3 nM
Cc1sc2c(-c3cc(Cl)ccc3OCCn3c(C)nc4c(C)c(C(F)(F)F)c(N5CCN(C)CC5)c(C#N)c4c3=O)ccnc2c1C(=O)O [compound 1933]	34.6 nM		
Cc1nc2cnc(N(C)C3CCN([C@H]4C[C@@H](OC(F)(F)F)C4)CC3)c(C#N)c2c(=O)n1CC#Cc1ccc(Cl)cc1-c1ccnc2c(C(=O)NS(=O)(=O)c3ccccn3)csc12 [compound 1611]	3.85 nM		
Cc1nc2cnc(N(C)[C@H]3CC[C@@H](N(C)CCF)CC3)c(C#N)c2c(=O)n1CC#Cc1ccc(Cl)cc1-c1ccnc2c(C(=O)O)csc12 [compound 1533]	21.7 nM		
Cc1nc2cnc(N3CCC(N4CC(OC(F)F)C4)CC3)c(C#N)c2c(=O)n1CC#Cc1ccc(Cl)cc1-c1ccnc2c(C(=O)O)csc12 [compound 1187]		< 50 nM	
Cc1nc2cc(C(F)(F)F)c(N3CCN(CC(F)(F)F)CC3)c(C#N)c2c(=O)n1CCOc1ccc(Cl)cc1-c1ccnc2c(C(=O)O)csc12 [compound 640]		< 50 nM	24 nM
CONC(=O)c1csc2c(-c3cc(Cl)ccc3OCCn3c(C)nc4cc(C(F)(F)F)c(Cl)c(C#N)c4c3=O)ccnc12 [compound 521]		50 to 1000 nM	623 nM
Cc1cc(-c2cc(Cl)ccc2OCCn2c(C)nc3cc(C(F)(F)F)c(-c4cn(C)cn4)c(C#N)c3c2=O)c2scc(C(=O)O)c2n1 [compound 907]		< 50 nM	7.76 nM
Cc1nc2cc(C(=O)N(C)C)cc(C#N)c2c(=O)n1CCOc1ccc(Cl)cc1-c1ccnc2c(C(=O)O)csc12 [compound 413]		< 50 nM	34.6 nM
Cc1nc2cnc(N3CCN(CC4(C(F)(F)F)CC4)CC3)c(C#N)c2c(=O)n1CCOc1ccc(Cl)cc1-c1ccnc2c(C(=O)O)csc12 [compound 1471]	14.2 nM		
Cc1nc2ccc(S(=O)(=O)N3CCCC3)c(C#N)c2c(=O)n1CCOc1ccc(Cl)cc1-c1ccnc2c(C(=O)O)csc12 [compound 249]		< 50 nM	19.8 nM
Cc1cc(C)nc(-c2c(C(F)(F)F)cc3nc(C)n(CCOc4ccc(Cl)cc4-c4cc(C)nc5c(C(=O)O)csc45)c(=O)c3c2C#N)c1 [compound 905]		< 50 nM	9.38 nM
Cn1ccc2c(=O)n(CCOc3ccc(Cl)cc3-c3cccc(C(=O)O)c3)cnc21 [compound 68]		> 1000 nM	64300 nM
N#Cc1cc2c(=O)n(CCOc3ccc(Cl)cc3-c3ccc(C(=O)O)o3)cnc2cn1 [compound 79]		> 1000 nM	1650 nM
Cc1cc(-c2cc(Cl)ccc2C#CCn2c(C)nc3cc(C(F)(F)F)c(CN(C)C)c(C#N)c3c2=O)c2scc(C(=O)O)c2n1 [compound 562]		< 50 nM	8.78 nM
Cc1nc2cnc(N3CC(N4CCC(F)(F)CC4)C3)c(C#N)c2c(=O)n1CCOc1ccc(Cl)cc1-c1ccnc2c(C(=O)O)csc12 [compound 1340]	44.2 nM		
COCC(F)(F)CN1CCC(N(C)c2ncc3nc(C)n(CC#Cc4ccc(Cl)cc4-c4ccnc5c(C(=O)O)csc45)c(=O)c3c2C#N)CC1 [compound 1133]		< 50 nM	17 nM
Cc1cc(-c2cc(Cl)ccc2OCCn2c(C)cc3cnc(N4CCC4)c(C#N)c3c2=O)c2scc(C(=O)O)c2n1 [compound 1003]		< 50 nM	13.4 nM
Cc1nc2c(F)c(F)c(C(F)F)c(C#N)c2c(=O)n1CCOc1ccc(Cl)cc1-c1ccnc2c(C(=O)O)csc12 [compound 298]		50 to 1000 nM	101 nM
Cc1cc(-c2cc(Cl)ccc2OCCn2c(C)nc3cnc(C4CC4C(F)(F)F)c(C#N)c3c2=O)c2scc(C(=O)O)c2n1 (stereo not shown) [compound 994]		< 50 nM	23.4 nM
Cc1nc2cc(C(F)(F)F)c(CN(C)C)c(C#N)c2c(=O)n1CCOc1cc(F)c(Cl)cc1-c1ccnc2c(C(=O)O)csc12 [compound 503]		< 50 nM	8.67 nM
Cc1nc2cc(Cl)c(S(=O)(=O)N(C)C)c(C#N)c2c(=O)n1CCOc1ccc(Cl)cc1-c1ccnc2c(C(=O)O)csc12 [compound 247]		50 to 1000 nM	61.1 nM
COc1cc(C#N)c2c(=O)n(CCOc3ccc(Cl)cc3-c3ccnc4c(C(=O)O)csc34)c(C)nc2c1 [compound 405]		< 50 nM	19.7 nM

Structure (SMILES)	IC50 [1]	IC50 [2]	IC50 [3]
Cc1nc2cc(C(C)(F)F)cc(C#N)c2c(=O)n1CCOc1ccc(Cl)cc1-c1ccnc2c(C(=O)O)csc12 [compound 217]		50 to 1000 nM	55.4 nM
Cc1cc(-c2cc(Cl)ccc2OCCn2c(C)nc3cc(C(F)(F)F)c(-c4ccccn4)nc3c2=O)c2scc(C(=O)O)c2n1 [compound 462]		< 50 nM	10.5 nM
Cc1nc2cc(C(F)(F)F)c(N3CCN(C)CC3)c(C#N)c2c(=O)n1CCOc1ccc(Cl)cc1-c1ccnc2cc(C#N)sc12 [compound 1245]	15.6 nM	< 50 nM	
Cc1nc2cnc(N3CCN(C4(CCC(F)(F)F)CC4)CC3)c(C#N)c2c(=O)n1CCOc1ccc(Cl)cc1-c1ccnc2c(C(=O)O)csc12 [compound 1401]	12.7 nM		
Cc1nc2cc(C(F)(F)F)cc(C#N)c2c(=O)n1CCOc1ncc(Cl)cc1-c1ccnc2c(C(=O)O)csc12 [compound 259]		50 to 1000 nM	> 1000 nM
Cc1cc(-c2cc(Cl)ccc2OCCn2c(C)nc3cc(C(F)(F)F)c(CC4CCN(C)CC4=O)c(C#N)c3c2=O)c2scc(C(=O)O)c2n1 (stereo not shown) [compound 1908]	5.17 nM		
Cc1cc(-c2cc(Cl)ccc2OCCn2c(C)nc3cc(C(F)(F)F)c(-c4cnc(Cl)cc4F)c(C#N)c3c2=O)c2scc(C(=O)O)c2n1 [compound 1384]	6.86 nM		
Cc1nc2c(C(C)C)nc(N3CCN(CCF)CC3)c(C#N)c2c(=O)n1CCOc1ccc(Cl)cc1-c1ccnc2c(C(=O)O)csc12 [compound 183]		50 to 1000 nM	50.2 nM
CCOP(=O)(OCC)c1csc2c(-c3cc(Cl)ccc3OCCn3c(C)nc4cnc(N(C)C5CCN(CC(F)F)CC5)c(C#N)c4c3=O)ccnc12 [compound 1616]	11.5 nM		
Cc1nc2cc(C#N)c(OC(F)F)c(C#N)c2c(=O)n1CCOc1ccc(Cl)cc1-c1ccnc2c(C(=O)O)csc12 [compound 547]		50 to 1000 nM	134 nM
O=C(O)c1cccc(-c2cc(Cl)ccc2OCCn2ccc3nnccc3c2=O)c1 [compound 15]		> 1000 nM	1740 nM
Cc1nc2cnc(N(C)C3C[C@@H]4C[C@H]3CN4CC(C)(F)F)c(C#N)c2c(=O)n1CC#Cc1ccc(Cl)cc1-c1ccnc2c(C(=O)O)csc12 (stereo partly shown) [compound 1545]	27.5 nM		
CCc1cc(-c2cc(Cl)ccc2OCCn2c(C)nc3cc(C(F)(F)F)c(N4CC5(C4)CN(C4CC4)C5)c(C#N)c3c2=O)c2scc(C(=O)NS(C)(=O)=O)c2n1 [compound 1932]	8.4 nM		
Cc1nc2cnc(N(C)C3CCN(C(C)(C)C(F)(F)F)CC3)c(C#N)c2c(=O)n1CC#Cc1ccc(Cl)cc1-c1ccnc2c(C(=O)O)csc12 [compound 1507]	16 nM		
Cc1nc2cnc(N(C)C3CCN(CC(F)(F)F)CC3)c(C#N)c2c(=O)n1CC#Cc1ccc(Cl)cc1-c1ccnc2c(C(=O)NS(=O)(=O)CF)csc12 [compound 1669]	9.17 nM		
Cc1cc(-c2cc(Cl)ccc2OCCn2c(C)nc3cc(C(F)(F)F)c(OCC(F)(F)F)c(C#N)c3c2=O)c2scc(C(=O)O)c2n1 [compound 1074]		< 50 nM	17.4 nM
Cc1nc2cnc(N(C)C3CCN(CC(F)(F)F)CC3)c(C#N)c2c(=O)n1CCOc1ccc(Cl)cc1-c1ccnc2c(C(=O)NS(C)(=O)=O)csc12 [compound 1157]		< 50 nM	22 nM
N#Cc1cc(C(F)(F)F)cc2c(Cl)c(Cl)n(CCOc3ccc(Cl)cc3-c3ccnc4c(C(=O)O)csc34)c(=O)c12 [compound 1970]	67.2 nM		
O=C(O)c1cccc(-c2cc(Cl)ccc2OCCn2cnc3cc(F)ccc3c2=O)c1 [compound 3]		> 1000 nM	4720 nM
Cc1nc2cc(F)c(F)c(C#N)c2c(=O)n1CCOc1ccc(Cl)cc1-c1ccnc2c(-c3nnn[nH]3)csc12 [compound 306]		50 to 1000 nM	91.2 nM
CSCc1cc(F)c2cc(C)n(CCOc3ccc(Cl)cc3-c3ccnc4c(C(=O)O)csc34)c(=O)c2c1C#N [compound 534]		< 50 nM	30.2 nM
Cc1nc2cnc(N(C)C3CCN(C4CC(F)(F)C4)CC3)c(C#N)c2c(=O)n1CC#Cc1ccc(Cl)cc1-c1ccnc2c(C(=O)NS(=O)(=O)CC(C)(C)C#N)csc12 [compound 1827]	14.8 nM		
Cc1cc(-c2cc(Cl)ccc2OCCn2c(C)nc3cnc(-n4ccc5ccccc54)c(C#N)c3c2=O)c2scc(C(=O)O)c2n1 [compound 983]		< 50 nM	18.9 nM
Cc1cc(-c2cc(Cl)ccc2OCCn2c(C)nc3cc(C(F)(F)F)c(CC4CCNCC4)c(C#N)c3c2=O)c2scc(C(=O)O)c2n1 [compound 714]		< 50 nM	47.2 nM
Cc1nc2cc3c(c(C#N)c2c(=O)n1CCOc1ccc(Cl)cc1-c1ccnc2c(C(=O)O)csc12)S(=O)(=O)N(C)CC3 [compound 1954]	17 nM		
